Data published in US20250195464A1, “ALOTAKETAL COMPOUNDS AND DERIVATIVES THEREOF FOR USE AS ANTIVIRAL AGENTS” (priority 2022, published 2025).
Read-outs that look alike come from different tables or passages of the source.

System: SARS-CoV-2 Omicron
Test: microbe, parasite or virus in culture
Format: cell-based
Conditions: Severe acute respiratory syndrome coronavirus 2, Calu-3

CC(=O)O[C@]1(C)C[C@@H](/C=C(\C)CCC=C(C)C)O[C@@]2(C=C(CO)[C@H]3CC(=O)C(C)=C[C@H]3O2)C1 [Alotaketal C]
EC50 (read-out: Nucleocapsid EC50, Omicron): 140 nM
EC50 (read-out: dsRNA EC50, Omicron): 1540 nM
